Reference: ChEMBL document CHEMBL4706735, “Novel Pyrazolo[3,4-b]pyrazines as SHP2 Inhibitors for Treating Cancer” (ACS Med Chem Lett, 2021)

Assay: Inhibition of ERK phosphorylation in human HCC827 cells incubated for 30 mins in serum free medium measured by sandwich ELISA
Type: cell-based
Conditions: HCC827, 0.5 h

| IC50 [nM] | SMILES |
| --- | --- |
| 6.3 | Cn1cc2c(Cl)c(-c3n[nH]c4nc(N5CCC6(CC5)CC(F)(F)C[C@H]6N)c(CO)nc34)ccc2n1 |
| 3.6 | C[C@@H]1OCC2(CCN(c3nc4[nH]nc(-c5ccc6nn(C)c(Cl)c6c5Cl)c4nc3CO)CC2)[C@@H]1N |
| 6.2 | Cn1nc2ccc(-c3n[nH]c4nc(N5CCC6(CC5)CC(F)(F)C[C@H]6N)c(CO)nc34)c(Cl)c2c1Cl |
| 4.1 | Cn1nc2ccc(-c3n[nH]c4nc(N5CCC6(CC5)C[C@H](F)C[C@H]6N)c(CO)nc34)c(Cl)c2c1Cl |

The next lines start with the compound.

| SMILES | IC50 [nM] |
| --- | --- |
| C[C@@H]1OCC2(CCN(c3nc4[nH]nc(-c5cccc(Cl)c5F)c4nc3CO)CC2)[C@@H]1N | 5.6 |
| COc1cnc2ccc(-c3n[nH]c4nc(N5CCC6(CC5)CO[C@@H](C)[C@H]6N)c(CO)nc34)c(Cl)c2n1 | 8.4 |
